Measured values reported in US7759345B2, “Antitumoral derivatives of ET-743” (priority 2001, dated 2010).

Tests used:
Format in all cases: cell-based
K-562 = assay: Inhibition of cells growth by colorimetric assay (SRB), K-562
Protocol: (§1) 2°.—Inhibition of Cells Growth by Colorimetric Assay.
(§2) A colorimetric type of assay, using sulforhodamine B (SRB) reaction has been adapted for a quantitative measurement of cell growth and viability [following the technique described by Philip Skehan, et al. (1990), New colorimetric cytotoxicity assay for anticancer drug screening, J. Natl. Cancer Inst., 82:1107-1112]
(§3) This form of the assay employs 96 well cell culture microplates of 9 mm diameter (Faircloth, 1988; Mosmann, 1983). Most of the cell lines are obtained from American Type Culture Collection (ATCC) derived from different human cancer types.
(§4) Cells are maintained in RPMI 1640 10% FBS, supplemented with 0.1 g/l penicillin and 0.1 g/l streptomycin sulfate and then incubated at 37° C., 5% CO2 and 98% humidity. For the experiments, cells were harvested from subconfluent cultures using trypsin and resuspended in fresh medium before plating.
(§5) Cells are seeded in 96 well microtiter plates, at 5×10^3 cells per well in aliquots of 195 μl medium, and they are allowed to attach to the plate surface by growing in drug free medium for 18 hours. Afterward, samples are added in aliquots of 5 μl in a ranging from 10 to 10^−8 μg/ml, dissolved in DMSO/EtOH/PBS (0.5:0.5:99). After 48 hours exposure, the antitumor effect are measured by the SRB methodology: cells are fixed by adding 50 μl of cold 50% (wt/vol) trichloroacetic acid (TCA) and incubating for 60 minutes at 4° C. Plates are washed with deionized water and dried. One hundred μl of SRB solution (0.4% wt/vol in 1% acetic acid) is added to each microtiter well and incubated for 10 minutes at room temperature. Unbound SRB is removed by washing with 1% acetic acid. Plates are air dried and bound stain is solubilized with Tris buffer. Optical densities are read on a automated spectrophotometric plate reader at a single wavelength of 490 nm.
(§6) The values for mean+/−SD of data from triplicate wells are calculated. Some parameters for cellular responses can be calculated: GI=growth inhibition, TGI=total growth inhibition (cytostatic effect) and LC=cell killing (cytotoxic effect).
(§7) Obtained results may predict the usefulness of a certain drug as a potential cancer treatment. For this technique, compounds which show GI50 values smaller than 10 μg/ml are selected to continue with further studies. GI50's data allow to predict that not only could a drug be cystostatic, but also it could have a potential in terms of tumor reduction.

A-549 = assay: Inhibition of cells growth by colorimetric assay (SRB), A-549
Method in brief: (§8)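 First, cells were plated at 5×10^3 per well and left 18 h to attach. Next, compound was added over 10 to 10^−8 μg/ml for 48 h. Finally, cells were TCA-fixed, SRB-stained and absorbance read at 490 nm.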

SK-MEL-28 = assay: Inhibition of cells growth by colorimetric assay (SRB), SK-MEL-28
Method in brief: as §8

HT-29 = assay: Inhibition of cells growth by colorimetric assay (SRB), HT-29
Method in brief: as §8

LoVo = assay: Inhibition of cells growth by colorimetric assay (SRB), LoVo
Protocol: as §1, §2, §3, §4, §5, §6, §7

LoVo-Dox = assay: Inhibition of cells growth by colorimetric assay (SRB), LoVo-Dox
Protocol: as §1, §2, §3, §4, §5, §6, §7

DU-145 = assay: Inhibition of cells growth by colorimetric assay (SRB), DU-145
Protocol: as §1, §2, §3, §4, §5, §6, §7

LNCaP = assay: Inhibition of cells growth by colorimetric assay (SRB), LNCaP
Protocol: as §1, §2, §3, §4, §5, §6, §7

SK-BR-3 = assay: Inhibition of cells growth by colorimetric assay (SRB), SK-BR-3
Protocol: as §1, §2, §3, §4, §5, §6, §7

IGROV-1 = assay: Inhibition of cells growth by colorimetric assay (SRB), IGROV-1
Protocol: as §1, §2, §3, §4, §5, §6, §7

IGROV-ET = assay: Inhibition of cells growth by colorimetric assay (SRB), IGROV-ET
Protocol: as §1, §2, §3, §4, §5, §6, §7

SK-OV-3 = assay: Inhibition of cells growth by colorimetric assay (SRB), SK-OV-3
Protocol: as §1, §2, §3, §4, §5, §6, §7

PANC-1 = assay: Inhibition of cells growth by colorimetric assay (SRB), PANC-1
Protocol: as §1, §2, §3, §4, §5, §6, §7

HMEC1 = assay: Inhibition of cells growth by colorimetric assay (SRB), HMEC1
Protocol: as §1, §2, §3, §4, §5, §6, §7

COc1cc2c(cc1O)CCN[C@]21CS[C@@H]2c3c(O)c(C)c4c(c3[C@H](COC1=O)N1C2[C@H]2c3c(cc(C)c(OC)c3O)C[C@@H]([C@@H]1O)N2C)OCO4 (stereo partly drawn) [Et-701]
GI50 (K-562; Homo sapiens, K562, 48 h, SRB assay, 48 hours exposure, read-out: K-562 GI50): 1.33 nM
LC50 (50% cell killing) (K-562; Homo sapiens, K562, 48 h, read-out: K-562 LC50, SRB assay, 48 hours exposure): 11.3 nM
K-562 TGI (K-562; SRB assay, 48 hours exposure): 3.50E-09
GI50 (A-549; Homo sapiens, A549, 48 h, SRB assay, 48 hours exposure, read-out: A-549 GI50): 2.99 nM
LC50 (concentration for 50% cell killing) (A-549; Homo sapiens, A549, 48 h, read-out: A-549 LC50, SRB assay, 48 hours exposure): 13.9 nM
A-549 TGI (A-549; SRB assay, 48 hours exposure): 7.06E-09
GI50 (SK-MEL-28; Homo sapiens, SK-MEL-28, 48 h, SRB assay, 48 hours exposure, read-out: MEL-28 GI50): 9.74 nM
CC50 (SK-MEL-28; Homo sapiens, SK-MEL-28, 48 h, read-out: MEL-28 LC50, SRB assay, 48 hours exposure): 122 nM
MEL-28 TGI (SK-MEL-28; SRB assay, 48 hours exposure): 3.50E-08
GI50 (HT-29; Homo sapiens, HT-29, 48 h, SRB assay, 48 hours exposure, read-out: HT-29 GI50): 4.24 nM
LC50 (concentration for 50% cell killing) (HT-29; Homo sapiens, HT-29, 48 h, read-out: HT-29 LC50, SRB assay, 48 hours exposure): 9560 nM
HT-29 TGI (HT-29; SRB assay, 48 hours exposure): 3.72E-08
GI50 (LoVo; Homo sapiens, LoVo, 48 h, SRB assay, 48 hours exposure, read-out: LOVO GI50): 4.56 nM
LC50 (concentration for 50% cell killing) (LoVo; Homo sapiens, LoVo, 48 h, read-out: LOVO LC50, SRB assay, 48 hours exposure): 3750 nM
LOVO TGI (LoVo; SRB assay, 48 hours exposure): 1.18E-08
GI50 (LoVo-Dox; Homo sapiens, 48 h, SRB assay, 48 hours exposure, read-out: LOVO-DOX GI50): 50.6 nM
CC50 (LoVo-Dox; Homo sapiens, 48 h, read-out: LOVO-DOX LC50, SRB assay, 48 hours exposure): 13900 nM
LOVO-DOX TGI (LoVo-Dox; SRB assay, 48 hours exposure): 5.46E-07
GI50 (DU-145; Homo sapiens, DU-145, 48 h, SRB assay, 48 hours exposure, read-out: DU-145 GI50): 4.04 nM
CC50 (DU-145; Homo sapiens, DU-145, 48 h, read-out: DU-145 LC50, SRB assay, 48 hours exposure): 2970 nM
DU-145 TGI (DU-145; SRB assay, 48 hours exposure): 9.70E-09
GI50 (LNCaP; Homo sapiens, LNCaP, 48 h, read-out: LNCAP GI50, SRB assay, 48 hours exposure): 0.324 nM
CC50 (LNCaP; Homo sapiens, LNCaP, 48 h, read-out: LNCAP LC50, SRB assay, 48 hours exposure): 5.28 nM
LNCAP TGI (LNCaP; SRB assay, 48 hours exposure): 1.56E-09
GI50 (SK-BR-3; Homo sapiens, SK-BR-3, 48 h, SRB assay, 48 hours exposure, read-out: SK-BR3 GI50): 2.21 nM
CC50 (SK-BR-3; Homo sapiens, SK-BR-3, 48 h, read-out: SK-BR3 LC50, SRB assay, 48 hours exposure): 27.5 nM
SK-BR3 TGI (SK-BR-3; SRB assay, 48 hours exposure): 6.25E-09
GI50 (IGROV-1; Homo sapiens, IGROV-1, 48 h, SRB assay, 48 hours exposure, read-out: IGROV GI50): 2.33 nM
CC50 (IGROV-1; Homo sapiens, IGROV-1, 48 h, read-out: IGROV LC50, SRB assay, 48 hours exposure): 11.1 nM
IGROV TGI (IGROV-1; SRB assay, 48 hours exposure): 5.08E-09
GI50 (IGROV-ET; Homo sapiens, 48 h, SRB assay, 48 hours exposure, read-out: IGROV-ET GI50): 16.4 nM
CC50 (IGROV-ET; Homo sapiens, 48 h, read-out: IGROV-ET LC50, SRB assay, 48 hours exposure): 3750 nM
IGROV-ET TGI (IGROV-ET; SRB assay, 48 hours exposure): 7.78E-08
GI50 (SK-OV-3; Homo sapiens, SK-OV-3, 48 h, SRB assay, 48 hours exposure, read-out: SK-OV3 GI50): 2.1 nM
LC50 (SK-OV-3; Homo sapiens, SK-OV-3, 48 h, read-out: SK-OV3 LC50, SRB assay, 48 hours exposure): 9850 nM
SK-OV3 TGI (SK-OV-3; SRB assay, 48 hours exposure): 1.08E-08
GI50 (PANC-1; Homo sapiens, PANC-1, 48 h, SRB assay, 48 hours exposure, read-out: PANC-1 GI50): 4.61 nM
LC50 (concentration for 50% net cell kill) (PANC-1; Homo sapiens, PANC-1, 48 h, read-out: PANC-1 LC50, SRB assay, 48 hours exposure): 206 nM
PANC-1 TGI (PANC-1; SRB assay, 48 hours exposure): 1.19E-08
GI50 (HMEC1; Homo sapiens, HMEC-1, 48 h, SRB assay, 48 hours exposure, read-out: HMEC-1 GI50): 3.99 nM
LC50 (HMEC1; Homo sapiens, HMEC-1, 48 h, read-out: HMEC-1 LC50, SRB assay, 48 hours exposure): 4570 nM
HMEC-1 TGI (HMEC1; SRB assay, 48 hours exposure): 1.35E-08
